This is an account of results in patent US5587463A, “Texaphyrin macrocycles and metal complexes thereof” (Board of Regents, The University of Texas System, priority 1994, dated 1996).

Where two headings read alike, the source gives them in different places.

On the set-up of data set [1]: tt (triplet lifetime): unit not given here. Conditions: benzene, see reference 4, cited from earlier work.
Data set [2] can be described thus: Optical and photophysical properties of metallotexaphyrins (laser flash photolysis, fluorescence, singlet oxygen luminescence). Format: physicochemical. Also noted: tt (triplet lifetime): unit not given here. The following applies: CH3 OH; for Absorption gmax (Soret-type band): first value (Soret); for Absorption gmax (Q-type band): second value (Q-type); for D^1 O2 (singlet oxygen quantum yield) / Df (fluorescence quantum yield): ±10%. An excerpt: Finally, several complexes containing paramagnetic metal ions (e.g. Mn^II, Sm^III, and Eu^III, structures 5c -7c) were investigated.
Comparison of the initial intensity with that obtained using tetrakis (4-hydroxyphenyl)porphyrin (THPP) as photosensitizer^3b under identical conditions allowed calculation of the quantum yields for production of singlet oxygen (^.phi. 1.cndot.2).

Data set [3] in a line: Hydrolysis in aqueous acid. Format: physicochemical. From the text: (§1) Attempts to demetallate complex 3A .cndot.NO3 were made. In an effort to obtain the free sp^2 bridged ligand 2A, the above complex in chloroform was stirred for several hours in the presence of sodium sulfide and independently with sodium thiosulfate. […] In the case of sodium sulfide, this critical conclusion was further supported by FAB MS: Other than the starting cationic complex 3A, no evidence was obtained for any moderate to high molecular weight volatile products in the mass spectrum. […] The rate of this process, however, is strongly pH dependent, the half-life being, for instance, on the order of several hours in the presence of ca. 0.1N HCl.

Data set [4] can be described thus: Stability to demetallation (sulfide, thiosulfate). Format: physicochemical. Conditions: for demetallation by sulfide: aqueous Na2 S / excess sulfide anion.
Excerpt: The above K1 and K2 (or K1 K2) values are predicated on the assumption that the cadmium complexes under discussion are stable with regards to demetallation and that the equilibria of equations 1 and 2 (or 3) pertain under the conditions of base binding. The first of these concerns is readily apparent: If demetallation occurs, then obviously one is not studying base binding! […] The second concern is particularly important within the context of quantitative work: If, for instance, the starting complex 3.cndot.NO3 is not rigorously five coordinate, then K1 (and perhaps K2 as well) would represent an axial ligand displacement reaction rather than a pure addition process as implied above. Control experiments indicate that the assumption of initial five coordination is reasonable: Independent titrations of 3A .cndot.NO3 with NH4 NO3 and H2 O indicate that only modest and monotonic changes in the chemical shift of the "meso" signals take place over the course of adding ≥50 equivalents of these potentially adventitious ligands.^40 This means that either "complete" binding occurs at 1:1 stoichiometry (essentially ruled out in the case of H2 O on the basis of analytical data), or that these species are poorly coordinating in CHCl3 so that five coordination pertains about cadmium; the latter interpretation appearing more likely.
as §1

Data set [5] is described as follows: Axial base binding of benzimidazole, 1H NMR spectral titration. The following applies: for conversion to six coordinate form (4bA): ca. 5×10^-3 M. An excerpt:
(§2) For a rigorously five coordinate starting cadmium complex, such as that represented schematically by structure 3A, where neither the counter anion nor adventitious ligands serves to occupy an apical coordination site, base binding can be considered to occur in accord with equations (1) and (2) shown below. Under conditions where K1 […]K2, these processes can be considered to occur sequentially, giving first a monoligated, presumably pentagonal pyramidal six coordinate species (such as 4bA), followed by a coordinatively saturated bisligated pentagonal bipyramidal product akin to 5aA. Where, however, K2 >>K1this stepwise conceptual approach is invalid. Under these conditions, it becomes easier to analyze the base binding in terms of direct formation of the bisligated material as shown in equation (3).
(§3) L+B LB K1 =[LB]/[L][B] (1)
(§4) LB+B LB2 K2 =[LB2 ]/[LB][B] (2)
(§5) L+2B LB2 K1 K2 =[LB2 ]/[L][B]^2 (3)
(§6) The ^1 H NMR titration of 3A .cndot.NO3 with BzIm or pyr-D5 was done. Rigorously purified complex 3A .cndot.NO3 was dried at 80° C. under reduced pressure (1 mmHg) for 1 day. Starting samples for titration were then prepared by dissolving this five coordinate complex (3.32 mg, 0.005 mmol) in 0.7 to 0.75 ml of CDCl3 and transferring quantitatively to an NMR tube. To such samples were then added increasing aliquots of either BzIm or pyr-D5 (as solutions of known concentration in CDCl3) and recording the chemical shift of the "meso" protons at 27^Q C. Control experiments were also carried out by adding known quantities of CF3 CO2 H, D2 O, and NH4 NO3 to similar stock solutions of 3.cndot.NO3.
Determination of Binding Constants. […] The chemical shift data obtained for the "meso" signals as a function of added BzIm were thus analyzed as such at both very low and very high conversion: Standard Scatchard (single reciprocal) plots^38 were constructed by plotting (δ-δo)/[BzIm] vs (δ-δo) according to equation 4 (which corresponds to eq. 5.13 of ref. 38), obtaining K as the absolute value of the slope and the term (δ.infin. -δo)K as the intercept.
(δ-δo)/[BzIm]=-K(δ-δo)+(δ.infi
Here δ is the observed chemical shift, δo is the initial chemical shift of the pure five or six coordinate starting complex (3A .cndot.NO3 or 4bA --NO3), δ.infin. the chemical shift calculated for the final mono- or bisligated complexes 4bA .cndot.NO3 or 5aA .cndot.NO3, K the equilibrium constant in question, and [BzIm] the concentration of free, uncomplexed benzimidazole. […] This was done in a straightforward manner according to the expressions given in equations 5 and 6, where [lig]o represents the concentration of the starting five coordinate ligand 3A .cndot.NO3.
(δ-δo)/δ.infin. -δo) at low
[BzIm].congruent.[BzIm]o -[lig]o at high [BzIm]o (6)
Using these corrected values for [BzIm], straight line Scatchard plots were obtained with R[…]0.99 and 0.98 respectively for the low and high [BzIm]o regimes giving values of K1 and K2 of 1.80×10^4 M^-1 and 12.9 M^-1 respectively.

Data set [6] is described as follows: Axial base binding of pyridine, 1H NMR spectral titration.
Excerpt: as §2, §3, §4, §5, §6
The changes in "meso" proton chemical shift as a function of added [pyr] shown in FIG. 15 indicate a clear […] of two distinct binding regimes. Moreover as expected, attempts to fit the data as a simple monoligation process (to give 6CN material) according to eq. […] This was done using the convenient iterative procedure outlined by Connors.^38 Here the equations of interest, corresponding to eqs. 4.31 and 4.32 of Connors,^38 as adopted for NMR analyses, are:
[pyr]{Δ12 /(δ-δo)-1}-K1 (7)
(δ-δo) {1+K1 [pyr]+K1 K2 [pyr]^2
where δ is the observed chemical shift, δo is the initial chemical shift of the pure five coordinate starting complex 3.cndot.NO3, All is the total chemical shift difference corresponding to the formation of the pure putative monoligated six coordinate species, Δ12 is the total chemical shift corresponding to the formation of the bisligated cationic species 5a from the initial five coordinate material, and [pyr] is the free pyridine concentration. A precise expression for [pyr] is given by equation 9,^38 where [pyr]o is the concentration total added pyridine, and [lig]o represents the concentration of the starting five coordinate ligand 3A .cndot.NO3.
[pyr]o =[pyr]+[lig]o (K1 [pyr]+2K1 K2
[pyr]^2)/(1+K1 [pyr]+K1 K2 [pyr]^2)(9)
Initial iterative solutions of eqs. 7 (plotting 1/[pyr]-K1 Δ11 /(δ-δo) vs. [pyr]{Δ12 /δ-δo)-1}, giving K1 K2 and -K1 as the slope and intercept respectively) and 8 (plotting (δ-δo) {1+K1 [pyr]+K1 K2 [pyr]^2 }/[pyr] vs. [pyr], giving K1 K2 Δ12 and K1 Δ11 as the slope and intercept respectively) were therefore made using this greatly simplifying assumption. They converged quickly to give initial, uncorrected values of K1 =1.5M^-1 and K1 K2 =308M^-2. […]

With `CCCCCC[Si](CCCCCC)(CCCCCC)O[Si]1(O[Si](CCCCCC)(CCCCCC)CCCCCC)n2c3c4cc5ccccc5cc4c2N=C2N=C(N=c4c5cc6ccccc6cc5c(n41)=NC1=NC(=N3)c3cc4ccccc4cc31)c1cc3ccccc3cc12` [SiNC, bis(trin-hexylsiloxy)(2,3-naphthalocyaninato) silicon], in data set [1], the “Absorption gmax (first value)” value is on record as 310 nm, the “Absorption gmax (second value)” value was 776 nm, the Emission gmax is on record as 780 nm and the “S (= phi 1O2 / phi t)” value is listed as 0.90. The “tt (triplet lifetime)” value in data set [1] is listed as 331. For the same molecule, the “Dt (triplet quantum yield)” value in data set [1] (±5%) was 0.39. In addition, the “D^1 O2 (singlet oxygen quantum yield)” value in data set [1] (±10%) was 0.35.
Turning to `CCC1=C(C)c2cnc3ccc(Cl)cc3ncc3nc(cc4[n-]c(cc1n2)c(CC)c4CC)C(CC)=C3C.O=[N+]([O-])[O-].[Cd+2]` [4C NO3], in data set [2], the Emission gmax is reported as 788 nm, the “S (= phi 1O2 / phi t)” value is 0.76, the “Absorption gmax (Soret-type band)” value amounted to 421 nm and the “Absorption gmax (Q-type band)” value stood at 760 nm. In data set [2], the “D^1 O2 (singlet oxygen quantum yield)” value is reported as 0.74 and the “Df (fluorescence quantum yield)” value was 0.009. The “tt (triplet lifetime)” value in data set [2] (deoxygenated) is 36. Moreover, the “Dt (triplet quantum yield)” value in data set [2] (±5%) was 0.97.
On to `CCC1=C(C)c2cnc3cc(C)c(C)cc3ncc3nc(cc4[n-]c(cc1n2)c(CC)c4CC)C(CC)=C3C.[OH-].[OH-].[Sm+3]` [6C (OH)2], for which, in data set [2], the “Absorption gmax (Soret-type band)” value turned out to be 450 nm, the “Absorption gmax (Q-type band)” value was determined as 763 nm, the “D^1 O2 (singlet oxygen quantum yield)” value is listed as < 0.05 and the “Df (fluorescence quantum yield)” value is recorded as < 0.001.
As for `CCC1=C(C)c2cnc3ccccc3ncc3nc(cc4[n-]c(cc1n2)c(CC)c4CC)C(CC)=C3C.[Cd+2].c1ccncc1.c1ccncc1` [complex 4], the “hydrolysis in aqueous acid” value in data set [3] is given as “leads to hydrolysis of the macrocyle”. The demetallation by sulfide entry in data set [4] is “no demetallation takes place”. Also, the “stability relative to cadmium porphyrins” value in data set [4] (neutral conditions / base binding controls) is reported as “more stable than cadmium porphyrins”.
As to `C1=Cc2nc1c(-c1ccccc1)c1ccc([nH]1)c(-c1ccccc1)c1nc(c(-c3ccccc3)c3ccc([nH]3)c2-c2ccccc2)C=C1.[Cd].c1ccncc1` [CdTPP(pyr), reference compound], the demetallation by sulfide result in data set [4] was “leads to cation loss and precipitation of CdS”.
With `CCC1=C(C)c2cnc3ccccc3ncc3nc(cc4[n-]c(cc1n2)c(CC)c4CC)C(CC)=C3C.[Cd+2].c1ccc2[nH]cnc2c1` [4bA], the “conversion to bisligated seven coordinate form (5bA)” value in data set [5] (10 molar equivalents of BzIm) was determined as 35%.
For `CCC1=C(C)c2cnc3ccccc3ncc3nc(cc4[n-]c(cc1n2)c(CC)c4CC)C(CC)=C3C.[Mn+2].[OH-]` [5C OH], in data set [2], the “Absorption gmax (Soret-type band)” value was determined as 420 nm, the “Absorption gmax (Q-type band)” value stood at 760 nm, the “D^1 O2 (singlet oxygen quantum yield)” value is given as < 0.05 and the “Df (fluorescence quantum yield)” value is recorded as < 0.001.
Turning to `CCC1=C(C)c2cnc3cc(C)c(C)cc3ncc3nc(cc4[n-]c(cc1n2)c(CC)c4CC)C(CC)=C3C.[Eu+3].[OH-].[OH-]` [7C (OH)2], in data set [2], the “Absorption gmax (Soret-type band)” value is given as 451 nm, the “Absorption gmax (Q-type band)” value is 762 nm, the “D^1 O2 (singlet oxygen quantum yield)” value was < 0.05 and the “Df (fluorescence quantum yield)” value is < 0.001.
As for `CCC1=C(C)C2=[N+]3C1=Cc1c(CC)c(CC)c4[n]1[Cd-3]315[N+](=C2)c2ccccc2[N+]1=CC1=[N+]5C(=C4)C(CC)=C1C.O=[N+]([O-])[O-]` [3A .cndot.NO3], in data set [3], the “hydrolysis in aqueous acid” value is “appears to undergo hydrolysis (at the imine residues) and hence demetallation”. For the same molecule, the half-life for hydrolysis/demetallation result in data set [3] (ca. 0.1N HCl) is listed as “several hours”. Further, the “conversion to six coordinate form (4bA)” value in data set [5] (0.2 molar equivalents of BzIm) was “roughly 20%”; in data set [5] (1.0 molar equivalent of BzIm), 90%. Besides, the “K1 K2 (benzimidazole)” value in data set [5] (CDCl3, iterative approach) was 1.9×10^5 M^-2. Further, the Kd in data set [5] (CDCl3, iterative approach, read-out: K1 (benzimidazole) (converted)) was 50 µM; in data set [5] (CDCl3, very high conversion, read-out: K2 (benzimidazole) (converted)) it was 76900 µM; in data set [5] (CDCl3, very low conversion, read-out: K1 (benzimidazole) (converted)), 55.6 µM. Moreover, in data set [4], the demetallation by sulfide result was “little or no demetallation occurs”. In addition, the “changes in optical properties on treatment with sodium sulfide or sodium thiosulfate” value in data set [4] (chloroform, several hours) is listed as “No significant changes in optical properties were observed”. The “conversion to pentagonal bipyramidal product (5aA)” value in data set [6] (3 equivalents of pyridine) is listed as “ca. 5%”; in data set [6] (10 equivalents of pyridine), “roughly 35%”. In addition, the “K1 K2 (pyridine)” value was 315 M^-2 in data set [6] (CDCl3, final values, estimated error ≤10%); 315±30 M^-2 in data set [6] (CDCl3, final values, estimated error ≤10%, listed as 3A.cndot.NO3); 308 M^-2 in data set [6] (initial, uncorrected).
